Experimental data reported in patent US9976141B2, “Compositions and methods for inhibiting gene expression of Hif2alpha” (Arrowhead Madison Inc., priority 2015, dated 2018).

tested on: human (tumor) Hif2α (EPAS1) mRNA; assay: Hif2α knockdown in orthotopic RCC tumor bearing mice, single injection of RNAi trigger-delivery polymer conjugate, RT-qPCR (Table 7); type: in vivo; details: RNAi trigger 100 μg, polymer 100A 250 μg; single tail vein injection; relative to isotonic glucose
Method in brief: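 Female athymic nude mice carried orthotopic A498-SEAP ccRCC kidney tumours, used 5–6 weeks after implantation. They received one tail-vein injection of RGD-targeted Hif2α RNAi trigger–polymer conjugate or isotonic glucose. Tumour Hif2α mRNA was measured by TaqMan RT-qPCR normalised to CycA (ΔΔCT) and expressed relative to glucose-treated mice.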

Point of comparison: “AD01656 (antisense TUUCAUGAAAUCGUUACGUTT; sense ACGUAACGAUUUCAUGAAA; Hif2alpha RNAi agent antisense strand; modified_base 2,4,6,8,10,12,14,15,18 /mod_base = “2′-deoxy-2′-fluoro corresponding nucleoside”; modified_base 3,5,7,9,11,13,16,17,19 /mod_base = “2′-O-methyl corresponding nucleoside”; modified_base 2,21 /mod_base = “5′-phosphorothioate corresponding nucleotide”; Hif2alpha RNAi agent sense strand; modified_base 1,3,4,7,9,11,13,15,17,19 /mod_base = “2′-deoxy-2′-fluoro corresponding nucleoside”; modified_base 2,5,6,8,10,12,14,16,18 /mod_base = “2′-O-methyl corresponding nucleoside”; modified_base 2 /mod_base = “5′-phosphorothioate corresponding nucleotide)”, “Relative Expression day 4 (Hif2α mRNA in kidney tumor)” value 0.184. Against it:
- AD01654 (antisense TUUCAUGAAAUCGUUACGUTT; sense ACGUAACGAUUUCAUGAAA; Hif2alpha RNAi agent antisense strand; modified_base 2,4,6,8,10,13,14,16,18 /mod_base = “2′-deoxy-2′-fluoro corresponding nucleoside”; modified_base 3,5,7,9,11,12,15,17,19 /mod_base = “2′-O-methyl corresponding nucleoside”; modified_base 2,21 /mod_base = “5′-phosphorothioate corresponding nucleotide”; Hif2alpha RNAi agent sense strand; modified_base 1,3,5,8,9,11,13,15,17,19 /mod_base = “2′-deoxy-2′-fluoro corresponding nucleoside”; modified_base 2,4,6,7,10,12,14,16,18 /mod_base = “2′-O-methyl corresponding nucleoside”; modified_base 2 /mod_base = “5′-phosphorothioate corresponding nucleotide) — higher, 0.185
- AD01655 (antisense TUUCAUGAAAUCGUUACGUTT; sense ACGUAACGAUUUCAUGAAAT; Hif2alpha RNAi agent antisense strand; modified_base 2,4,6,8,10,13,14,16,18 /mod_base = “2′-deoxy-2′-fluoro corresponding nucleoside”; modified_base 3,5,7,9,11,12,15,17,19 /mod_base = “2′-O-methyl corresponding nucleoside”; modified_base 2,21 /mod_base = “5′-phosphorothioate corresponding nucleotide”; Hif2alpha RNAi agent sense strand; modified_base 1,3,5,8,9,11,13,15,17,19 /mod_base = “2′-deoxy-2′-fluoro corresponding nucleoside”; modified_base 2,4,6,7,10,12,14,16,18 /mod_base = “2′-O-methyl corresponding nucleoside”; modified_base 20 /mod_base = “3′-3′-linked nucleotide”; modified_base 1 /) — higher, 0.234
- AD01657 (antisense TUUCAUGAAAUCGUUACGUTT; sense ACGUAACGAUUUCAUGAAAT; Hif2alpha RNAi agent antisense strand; modified_base 2,4,6,8,10,12,14,15,18 /mod_base = “2′-deoxy-2′-fluoro corresponding nucleoside”; modified_base 3,5,7,9,11,13,16,17,19 /mod_base = “2′-O-methyl corresponding nucleoside”; modified_base 2,21 /mod_base = “5′-phosphorothioate corresponding nucleotide”; Hif2alpha RNAi agent sense strand; modified_base 1,3,4,7,9,11,13,15,17,19 /mod_base = “2′-deoxy-2′-fluoro corresponding nucleoside”; modified_base 2,5,6,8,10,12,14,16,18 /mod_base = “2′-O-methyl corresponding nucleoside”; modified_base 20 /mod_base = “3′-3′-linked nucleotide”; modified_base 1 /) — higher, 0.256

same assay, conditions: RNAi trigger 115 μg, polymer 100A 375 μg; single tail vein injection; relative to isotonic glucose

Point of comparison: “AD01554 (antisense TUUCAUGAAAUCGUUACGUTT; sense ACGUAACGAUUUCAUGAAAT; Hif2alpha RNAi agent antisense strand; modified_base 2,4,6,8,10,13,14,16,18 /mod_base = “2′-deoxy-2′-fluoro corresponding nucleoside”; modified_base 3,5,7,9,11,12,15,17,19 /mod_base = “2′-O-methyl corresponding nucleoside”; modified_base 2,3,21 /mod_base = “5′-phosphorothioate corresponding nucleotide”; Hif2alpha RNAi agent sense strand; modified_base 1,3,5,8,9,11,13,15,17,19 /mod_base = “2′-deoxy-2′-fluoro corresponding nucleoside”; modified_base 2,4,6,7,10,12,14,16,18 /mod_base = “2′-O-methyl corresponding nucleoside”; modified_base 20 /mod_base = “3′-3′-linked nucleotide”; modified_base 1)”, “Relative Expression day 4 (Hif2α mRNA in kidney tumor)” value 0.29. Against it:
- AD01522 (antisense TUUCAUGAAAUCGUUACGUTT; sense ACGUAACGAUUUCAUGAAAT; Hif2alpha RNAi agent antisense strand; modified_base 2,4,6,8,10,14,16,18 /mod_base = “2′-deoxy-2′-fluoro corresponding nucleoside”; modified_base 3,5,7,9,11,12,13,15,17,19 /mod_base = “2′-O-methyl corresponding nucleoside”; modified_base 21 /mod_base = “5′-phosphorothioate corresponding nucleotide”; Hif2alpha RNAi agent sense strand; modified_base 1,3,5,7,8,9,11,13,15,17,19 /mod_base = “2′-deoxy-2′-fluoro corresponding nucleoside”; modified_base 2,4,6,10,12,14,16,18 /mod_base = “2′-O-methyl corresponding nucleoside”; modified_base 20 /mod_base = “3′-3′-linked nucleotide”; modified_base 1 /mo) — higher, 0.44
- AD01523 (antisense TUUCAUGAAAUCGUUACGUTT; sense ACGUAACGAUUUCAUGAAAT; Hif2alpha RNAi agent antisense strand; modified_base 2,4,6,8,10,13,14,16,18 /mod_base = “2′-deoxy-2′-fluoro corresponding nucleoside”; modified_base 3,5,7,9,11,12,15,17,19 /mod_base = “2′-O-methyl corresponding nucleoside”; modified_base 21 /mod_base = “5′-phosphorothioate corresponding nucleotide”; Hif2alpha RNAi agent sense strand; modified_base 1,3,5,8,9,11,13,15,17,19 /mod_base = “2′-deoxy-2′-fluoro corresponding nucleoside”; modified_base 2,4,6,7,10,12,14,16,18 /mod_base = “2′-O-methyl corresponding nucleoside”; modified_base 20 /mod_base = “3′-3′-linked nucleotide”; modified_base 1 /mo) — higher, 0.49
- AD01524 (antisense TUUCAUGAAAUCGUUACGUTT; sense ACGUAACGAUUUCAUGAAAT; Hif2alpha RNAi agent antisense strand; modified_base 2,4,6,8,10,12,14,16,18 /mod_base = “2′-deoxy-2′-fluoro corresponding nucleoside”; modified_base 3,5,7,9,11,13,15,17,19 /mod_base = “2′-O-methyl corresponding nucleoside”; modified_base 2,3,21 /mod_base = “5′-phosphorothioate corresponding nucleotide”; Hif2alpha RNAi agent sense strand; modified_base 1,3,5,7,9,11,13,15,17,19 /mod_base = “2′-deoxy-2′-fluoro corresponding nucleoside”; modified_base 2,4,6,8,10,12,14,16,18 /mod_base = “2′-O-methyl corresponding nucleoside”; modified_base 20 /mod_base = “3′-3′-linked nucleotide”; modified_base 1) — lower, 0.26
- AD01555 (antisense TUUCAUGAAAUCGUUACGUTT; sense ACGUAACGAUUUCAUGAAAT; Hif2alpha RNAi agent antisense strand; modified_base 2,4,6,8,10,14,16,18 /mod_base = “2′-deoxy-2′-fluoro corresponding nucleoside”; modified_base 3,5,7,9,11,12,13,15,17,19 /mod_base = “2′-O-methyl corresponding nucleoside”; modified_base 2,3,21 /mod_base = “5′-phosphorothioate corresponding nucleotide”; Hif2alpha RNAi agent sense strand; modified_base 1,3,5,7,8,9,11,13,15,17,19 /mod_base = “2′-deoxy-2′-fluoro corresponding nucleoside”; modified_base 2,4,6,10,12,14,16,18 /mod_base = “2′-O-methyl corresponding nucleoside”; modified_base 20 /mod_base = “3′-3′-linked nucleotide”; modified_base 1) — lower, 0.20
